Measured values published in patent US20250262206A1, “USE OF TACHYKININ RECEPTOR 3 INHIBITÓR” (WUHAN UNIVERSITY, priority 2021, published 2025).
Where two headings read alike, the source gives them in different places.

Assays:
[1] = test system: Yki activated Drosophila (intestinal tumors); assay: Drosophila ascites caused by yki intestinal tumors; assay type: in vivo; details: 100 μM in food, yki intestinal tumor Drosophila, 6 days / 8 days
Source text: Overexpression of the activated proto-oncogene yki in Drosophila intestinal stem cells can lead to malignant proliferation of intestinal stem cells, and then the formation of tumors. The formation of tumors seriously damages the secretory function of Drosophila Malpighian tubules, leading to the inability of circulating water in the Drosophila hemolymph to be drained out of the body, and the emergence of a severe ascites phenotype. Methods: Activated yki tumors (genotypes esg-Gal4, UAS-GFP, tub-Gal80TS/+; UAS-yki3SA/+) were induced in the Drosophila intestine by initiating gene expression at 29° C. Drosophilas were fed with food supplemented with DMSO, Fezolinetant (10 μM, 100 μM), and Pavinetant (10 μM, 100 μM), […], and compared with the control group (esg-Gal4, UAS-GFP, tub-Gal80TS/+), to observe phenotypes, detect intestinal tumor growth and systemic glycolipid changes, and count ascites ratios.

[2] = test system: hot flashes in postmenopausal women; details: Phase 2 clinical trials; cited from earlier work
[3] = test system: C57BL/6J-APCMin/+ mice; assay: Kidney damage caused by intestinal adenoma in C57BL/6J-APCMin/+ mice; assay type: in vivo, mouse; details: 10 mg/kg/day intraperitoneal, 9 days
Method: C57BL/6J-APCMin/+ mice are a mature mammalian intestinal adenoma model and are commonly used to study host consumption caused by tumors.
Methods: Male mice of C57BL/6J in the control group and C57BL/6J-APCMin/+ in the experimental group (7 mice in each group) were fed to 16 weeks of age under normal feeding conditions. When the mice in the experimental group began to lose weight, they were injected intraperitoneally with Fezolinetant (0, 10 mg/kg/day) for 9 consecutive days, and the body weight and urine output were measured, and the kidneys were stained to observe the tubular morphology.

[4] = test system: polycystic ovary syndrome; details: Phase 2 clinical trials; cited from earlier work
[5] = test system: MFC tumor mice (C57BL/6J); assay: Ascites and kidney damage caused by MFC forestomach cancer cells in mice; assay type: in vivo, mouse; details: 50 mg/kg/day intraperitoneal, 5 days
Method: MFC tumor (Mouse forestomach carcinoma), a common tumor that may cause ascites, colonizes the peritoneal cavity of mice. With their growth, the tumors may cause severe ascites accumulation and renal tubular damage in mice. Methods: C57BL/6J male mice, 4-6 weeks old. C57BL/6J mice in experimental group (6 mice in each group) were intraperitoneally injected with 1.5×10^7 MFC tumor cells, and 24 hours later, intraperitoneally injected with the inhibitor Pavinetant (0, 10, 50 mg/kg/day), and after 5 days of continuous administration, they were compared with the control group C57BL/6 (6 mice in each group). The body weight, ascites, and urine output were detected, and the kidneys were stained to observe the tubular morphology.

[6] = biological target: cytochrome P450-3A4 (Homo sapiens, UniProt P08684); details: cited from earlier work
Chain of cytochrome P450-3A4 (P08684 whole entry): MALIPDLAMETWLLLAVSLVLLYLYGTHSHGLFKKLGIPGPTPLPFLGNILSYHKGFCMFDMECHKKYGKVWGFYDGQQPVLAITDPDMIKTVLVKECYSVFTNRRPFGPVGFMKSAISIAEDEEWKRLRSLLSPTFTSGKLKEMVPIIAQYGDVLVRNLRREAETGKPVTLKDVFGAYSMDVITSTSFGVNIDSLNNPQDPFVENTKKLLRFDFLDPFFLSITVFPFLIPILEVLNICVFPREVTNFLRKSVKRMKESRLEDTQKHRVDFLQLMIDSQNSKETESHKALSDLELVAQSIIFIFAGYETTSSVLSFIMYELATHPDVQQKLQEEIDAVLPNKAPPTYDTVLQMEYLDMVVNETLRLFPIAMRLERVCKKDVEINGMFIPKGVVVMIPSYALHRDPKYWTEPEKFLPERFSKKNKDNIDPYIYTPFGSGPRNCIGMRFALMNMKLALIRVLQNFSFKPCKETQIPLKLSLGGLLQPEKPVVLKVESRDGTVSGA

Compound | ascites in Drosophila [1] | blood glucose in Drosophila [1] | effect on hot flashes [2] | renal tubular damage (HE staining, tubular dilatation) [3] | urine output [3] | effect on polycystic ovary syndrome [4] | generation of ascites [5] | renal tubular lesions (renal tubular dilation) [5] | IC50 ([6]; midazolam, read-out: in vitro inhibitory IC50, cytochrome P450-3A4 enzyme activity, midazolam testing) [µM] | IC50 ([6]; testosterone, read-out: in vitro inhibitory IC50, cytochrome P450-3A4 enzyme activity, testosterone testing) [µM]
Cc1nsc(-c2nnc3n2CCN(C(=O)c2ccc(F)cc2)[C@@H]3C)n1 [Fezolinetant] | significantly reduce | normalize | significant improvement effect | significantly restored | significantly restored | – | – | – | – | –
CC[C@H](NC(=O)c1c(NS(C)(=O)=O)c(-c2ccccc2)nc2ccccc12)c1ccccc1 [Pavinetant] | significantly reduce | normalize | significantly improves | – | – | significantly improves | significantly inhibit | alleviate | 7.1 | 19.8
